From US5716797A, “Stable two-part reagent for the measurement of creatine kinase activity” (Wako Pure Chemical Industries, Ltd., priority 1995, dated 1998)
Where two headings read alike, the source gives them in different places.

Molecular target: T1, creatine kinase (CK) in human serum (Homo sapiens, UniProt P06732)
T1 construct: Five fresh human serum samples were used; from tissue; host or cells: fresh human serum
Experiment: Inhibitory effect of oxidized products of SH compounds on CK activity (HK/G6PDH UV method, NAC 26 mM as reactivator)
Format: biochemical
Settings: for CK activity value / CK activity value, Average: 5 mM SH compound oxidized product; for CK activity value: NAC 26 mM, 37° C.; for CK activity value, Average: average of 5 samples; for activity at 5000 µM: read-out: CK activity, relative value
Description: Investigation on the inhibitory effect of oxidized products of SH compounds on CK activity
Thus, oxidized products of the SH compounds, respectively, were obtained.
NAC (26 mM) as CK reactivator, each 5 mM of SH compound oxidized product obtained above, 2.6 mM of ADP, 3.9 u/ml of HK (available from Oriental Yeast Co., Ltd.), 8.0 u/ml of G6PDH (available from Oriental Yeast Co., Ltd.), 2.6 mM of NADP, 21 mM of glucose, 10 mM of magnesium acetate, 6.5 mM of AMP, 0.013 mM of APSA, 0.1% (w/v) of sodium azide and 2 mM of EDTA-2Na were dissolved in 128 mM imidazole-acetate buffer (pH 6.7). The thus obtained solutions were adjusted to pH 6.7 with sodium hydroxide to obtain enzyme solutions.
An enzyme solution containing no SH compound oxidized product was prepared as a control standard solution.
Five fresh human serum samples were used.
To 8 μl of each sample was added 320 μl of each enzyme solution, followed by preincubation for 5 minutes. Then, 80 μl of the substrate solution was added to initiate the reaction and the change of absorbance per minute was measured for 3 minutes from 2 minutes after the addition of the substrate solution. The CK activity value was calculated from the molecular extinction coefficient of the NADPH produced.
As a measuring apparatus, an Autoanalyzer Hitachi Model 7150 was used, and the measurement was carried out at 37° C. by use of dual wavelength (λ1 =405 nm, λ2 =340 nm).
Tables 2 and 3 show the CK activity values of the 5 samples in each case and the average thereof.

[1] = average with enzyme solution containing no SH compound oxidized product = 100%, 5 mM oxidized product

T1 sequence (P06732 whole entry): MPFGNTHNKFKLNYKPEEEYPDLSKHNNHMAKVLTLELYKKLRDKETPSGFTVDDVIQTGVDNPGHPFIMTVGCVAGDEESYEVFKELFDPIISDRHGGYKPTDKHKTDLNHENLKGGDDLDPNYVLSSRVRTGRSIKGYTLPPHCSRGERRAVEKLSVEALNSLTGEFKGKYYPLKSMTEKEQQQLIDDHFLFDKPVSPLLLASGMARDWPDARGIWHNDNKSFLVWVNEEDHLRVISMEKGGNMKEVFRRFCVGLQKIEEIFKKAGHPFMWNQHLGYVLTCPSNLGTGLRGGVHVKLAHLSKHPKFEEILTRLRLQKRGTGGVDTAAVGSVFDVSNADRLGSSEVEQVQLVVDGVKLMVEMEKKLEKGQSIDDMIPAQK

Row | Compound | inhibition of CK activity by oxidized product (5 mM oxidized product) | CK activity value (Sample 1 (fresh human serum)) | CK activity value (Sample 2) | CK activity value (Sample 3) | CK activity value (Sample 4) | CK activity value (Sample 5) | CK activity value, Average | activity at 5000 µM [1] | activity at 5000 µM | CK activity, relative value [1]
1 | O=c1ccnc(SSc2nccc(=O)[nH]2)[nH]1 [2-Thiouracil oxidized product] | hardly inhibited CK activity | 143 IU/l. | 407 IU/l. | 106 IU/l. | 314 IU/l. | 97 IU/l. | 213 IU/l. | 94.6% | – | –
2 | OCCSSCCO [2ME oxidized product] | hardly inhibited CK activity | 155 IU/l. | 427 IU/l. | 113 IU/l. | 332 IU/l. | 101 IU/l. | 226 IU/l. | – | 100% | –
3 | c1ccc(SSc2ccccc2)cc1 [Thiophenol oxidized product] | – | 73 IU/l. | 180 IU/l. | 55 IU/l. | 139 IU/l. | 50 IU/l. | 99 IU/l. | – | 44.1% | –
4 | Mercapto-succinic acid | – | 122 IU/l. | 330 IU/l. | 98 IU/l. | 285 IU/l. | 80 IU/l. | 183 IU/l. | – | – | 81.0%

Now from value to compound, other results behind:

Row | inhibition of CK activity by oxidized product (5 mM oxidized product) | CK activity value (Sample 1 (fresh human serum)) | CK activity value (Sample 2) | CK activity value (Sample 3) | CK activity value (Sample 4) | CK activity value (Sample 5) | CK activity value, Average | activity at 5000 µM [1] | Compound | activity at 5000 µM | CK activity, relative value [1]
5 | hardly inhibited CK activity | 150 IU/l. | 407 IU/l. | 108 IU/l. | 319 IU/l. | 99 IU/l. | 216 IU/l. | 95.9% | O[C@@H]1CSSC[C@H]1O (relative stereo) [DTT oxidized product] | – | –
6 | hardly inhibited CK activity | 155 IU/l. | 418 IU/l. | 114 IU/l. | 335 IU/l. | 98 IU/l. | 224 IU/l. | 99.3% | O=S(=O)(O)CCSSCCS(=O)(=O)O [2MES oxidized product] | – | –
7 | hardly inhibited CK activity | 161 IU/l. | 407 IU/l. | 106 IU/l. | 322 IU/l. | 97 IU/l. | 217 IU/l. | 96% | Nc1cc(O)nc(SSc2nc(N)cc(O)n2)n1 [AHMP oxidized product] | – | –
8 | – | 0 IU/l. | 1 IU/l. | 0 IU/l. | 1 IU/l. | 0 IU/l. | 0 IU/l. | 0.2% | Nc1nc(SSc2nc(N)nc3c2ncn3[C@@H]2O[C@H](CO)[C@@H](O)[C@H]2O)c2ncn([C@@H]3O[C@H](CO)[C@@H](O)[C@H]3O)c2n1 [AMPR oxidized product] | – | –
9 | hardly inhibited CK activity | 136 IU/l. | 388 IU/l. | 102 IU/l. | 302 IU/l. | 90 IU/l. | 204 IU/l. | 90.2% | OC[C@H]1O[C@@H](SS[C@@H]2O[C@H](CO)[C@@H](O)[C@H](O)[C@H]2O)[C@H](O)[C@@H](O)[C@@H]1O [TDG oxidized product] | – | –
10 | hardly inhibited CK activity | 153 IU/l. | 422 IU/l. | 112 IU/l. | 333 IU/l. | 106 IU/l. | 226 IU/l. | 100% | OCC(O)CSSCC(O)CO (centres unmarked) [TG oxidized product] | – | –
